According to patent US4959378A, “Aminopyridinylaminophenol compounds useful as topical antiinflammatory agents for the treatment of skin disorders” (Hoechst-Roussel Pharmaceuticals Inc., priority 1989, dated 1990):

Tests used:
porcine pancreatic PLA2 = biological target: T1, porcine pancreatic PLA2 (Sus scrofa, UniProt P00592); assay: In Vitro Phospholipase A2 Assay (PLA2); type: biochemical; settings: 0.01 M test compound; porcine pancreatic PLA2 3.2 units, pH 8.0, 37° C.; read-out: PLA2 (0.01 M), difference vs. control
T1 construct: from tissue; host or cells: porcine pancreas
Method: In Vitro Phospholipase A2 Assay (PLA2)
The ability of a compound to modulate PLA2 activity (cleavage of ^14 C-dipalmitoyl phosphotidylcholine at the 2-position to ^14 C-palmitic acid) was quantitated in this assay. The reaction mixture contained Tris buffer (25 mM), pH 8.0, calcium chloride (2.0 mM), bovine serum albumin (0.5 mg), dipalmitoyl phosphotidylcholine (8×10^-5M), (^14 C-palmitoyl)dipalmitoyl phosphotidylcholine (6×10^3cpm), porcine pancreatic PLA2 (3.2 units) and the test compound. The reaction was run at 37° C. in a shaking incubator. The reaction was quenched and an internal standard was added in order to determine sample recovery. The samples were loaded onto C18 columns, eluted with ethanol, and the radioactivity was then measured. […] See Feyen, J. H. M., et al., Journal of Chromatography 259 (1983), pp. 338-340.

[1] = tested on: naja naja (snake venom) phospholipase A2 -induced paw edema; assay: Phospholipase A2-induced Paw Edema (PIPE); type: in vivo, rat; settings: for PIPE (0.1 M), difference in edema vs. control: 0.1M test compound injected with PLA2 (3 units/paw) subplantar, rat left hindpaw, two hours post administration
Method: Phospholipase A2 -induced Paw Edema (PIPE)
The ability of compounds to prevent naja naja (snake venom) phospholipase A2 -induced paw edema in male Wistar rates (100-125 g) was measured. PLA2 (3 units/paw) alone or with 0.1M of the test compound was injected in the subplantar region of the rat left hindpaw. Immediately subsequent to the injection and at two hours post administration the paw was immersed in a mercury bath, and paw displacement was measured on a recorder via a transducer. […] See Giessler, A. J. et al., Agents and Actions, Vol. 10, Trends in Inflammation Research (1981), p. 195.

T1 sequence (P00592 23-146): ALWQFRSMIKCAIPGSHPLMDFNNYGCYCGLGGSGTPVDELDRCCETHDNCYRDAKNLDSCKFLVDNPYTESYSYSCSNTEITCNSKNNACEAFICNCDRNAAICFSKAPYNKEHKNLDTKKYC

Row | Structure (SMILES) | inhibition at 10000 µM (porcine pancreatic PLA2) | PIPE (0.1 M), difference in edema vs. control [1] | ED50 (PIPE standard) ([1]; standard, subplantar injection with PLA2, male Wistar rats)
1 | Nc1ccncc1Nc1cccc(O)c1 [3-[(4-Amino-3-pyridinyl)amino]phenol] | 35% | -52% | 
2 | Nc1ccncc1Nc1ccc(O)cc1.O=C(O)/C=C\C(=O)O [4-[(4-Amino-3-pyridinyl)amino]phenol maleate] | 35% | -62% | 
3 | C[C@]12CCC(=O)C=C1CC[C@@H]1[C@@H]2[C@@H](O)C[C@@]2(C)[C@H]1CC[C@]2(O)C(=O)CO [hydrocortisone, reference compound] |  |  | 0.46 M
